In ChEMBL document CHEMBL1201862, “PubChem BioAssay data set” (2004):
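Results reflect a 48-hour exposure of cells in 96-well plates to compound at five concentrations. GI50 marks 50% less growth.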 Active and inactive are the calls of the source. No stated cut-off is given here; in the data, active = GI50 up to about 1.1 µM and inactive = higher.

Key:
Assay in all cases: NCI tumour cell line growth inhibition, 48 h
786-0 = test system: 786-0
A498 = test system: A498
A549 = test system: A549
ACHN = test system: ACHN
BT-549 = test system: BT-549
CAKI-1 = test system: CAKI-1
CCRF-CEM = test system: CCRF-CEM
COLO 205 = test system: COLO 205
DU-145 = test system: DU-145
EKVX = test system: EKVX
HCT-116 = test system: HCT-116
HCT-15 = test system: HCT-15
HOP-62 = test system: HOP-62
HOP-92 = test system: HOP-92
HT-29 = test system: HT-29
Hs-578T = test system: Hs-578T
IGROV-1 = test system: IGROV-1
KM12 = test system: KM12
LOX IMVI = test system: LOX IMVI
M14 = test system: M14
MCF7 = test system: MCF7
MDA-MB-231 = test system: MDA-MB-231
MDA-MB-435 = test system: MDA-MB-435
MDA-N = test system: MDA-N
MOLT-4 = test system: MOLT-4
Malme-3M = test system: Malme-3M
NCI-H226 = test system: NCI-H226
NCI-H23 = test system: NCI-H23
NCI-H460 = test system: NCI-H460
NCI-H522 = test system: NCI-H522
NCI/ADR-RES = test system: NCI/ADR-RES
OVCAR-3 = test system: OVCAR-3
OVCAR-4 = test system: OVCAR-4
OVCAR-5 = test system: OVCAR-5
OVCAR-8 = test system: OVCAR-8
PC-3 = test system: PC-3
RPMI-8226 = test system: RPMI-8226
RXF 393 = test system: RXF 393
SF-268 = test system: SF-268
SF-295 = test system: SF-295
SF-539 = test system: SF-539
SK-MEL-28 = test system: SK-MEL-28
SK-MEL-2 = test system: SK-MEL-2
SK-MEL-5 = test system: SK-MEL-5
SK-OV-3 = test system: SK-OV-3
SN12C = test system: SN12C
SNB-19 = test system: SNB-19
SNB-75 = test system: SNB-75
SR = test system: SR
SW-620 = test system: SW-620
T47D = test system: T47D
TK-10 = test system: TK-10
U-251 = test system: U-251
UACC-257 = test system: UACC-257
UACC-62 = test system: UACC-62
UO-31 = test system: UO-31

C1CNCCN2CCCNCCN(C1)CC2
GI50 (786-0): > 100 µM (inactive)
GI50 (A498): > 100 µM (inactive)
GI50 (A549): > 100 µM (inactive)
GI50 (ACHN): > 100 µM (inactive)
GI50 (BT-549): > 100 µM (inactive)
GI50 (CAKI-1): > 100 µM (inactive)
GI50 (CCRF-CEM): 2 µM (inactive)
GI50 (COLO 205): > 100 µM (inactive)
GI50 (DU-145): > 100 µM (inactive)
GI50 (EKVX): > 100 µM (inactive)
GI50 (HCT-116): > 100 µM (inactive)
GI50 (HCT-15): > 100 µM
GI50 (HOP-62): > 100 µM (inactive)
GI50 (HOP-92): > 100 µM (inactive)
GI50 (HT-29): > 100 µM (inactive)
GI50 (Hs-578T): > 100 µM (inactive)
GI50 (IGROV-1): > 100 µM (inactive)
GI50 (KM12): > 100 µM (inactive)
GI50 (LOX IMVI): > 100 µM (inactive)
GI50 (M14): > 100 µM (inactive)
GI50 (MCF7): > 100 µM (inactive)
GI50 (MDA-MB-231): > 100 µM (inactive)
GI50 (MDA-MB-435): > 100 µM (inactive)
GI50 (MDA-N): > 100 µM (inactive)
GI50 (MOLT-4): > 100 µM (inactive)
GI50 (Malme-3M): > 100 µM (inactive)
GI50 (NCI-H226): > 100 µM (inactive)
GI50 (NCI-H23): > 100 µM (inactive)
GI50 (NCI-H460): > 100 µM (inactive)
GI50 (NCI-H522): > 100 µM (inactive)
GI50 (NCI/ADR-RES): > 100 µM (inactive)
GI50 (OVCAR-3): > 100 µM (inactive)
GI50 (OVCAR-4): > 100 µM (inactive)
GI50 (OVCAR-5): > 100 µM (inactive)
GI50 (OVCAR-8): > 100 µM (inactive)
GI50 (PC-3): > 100 µM (inactive)
GI50 (RPMI-8226): > 100 µM (inactive)
GI50 (RXF 393): > 100 µM (inactive)
GI50 (SF-268): > 100 µM (inactive)
GI50 (SF-295): > 100 µM (inactive)
GI50 (SF-539): > 100 µM (inactive)
GI50 (SK-MEL-28): > 100 µM (inactive)
GI50 (SK-MEL-2): > 100 µM (inactive)
GI50 (SK-MEL-5): > 100 µM (inactive)
GI50 (SK-OV-3): > 100 µM (inactive)
GI50 (SN12C): > 100 µM (inactive)
GI50 (SNB-19): > 100 µM (inactive)
GI50 (SNB-75): > 100 µM (inactive)
GI50 (SR): > 100 µM (inactive)
GI50 (SW-620): > 100 µM (inactive)
GI50 (T47D): > 100 µM (inactive)
GI50 (TK-10): > 100 µM (inactive)
GI50 (U-251): > 100 µM (inactive)
GI50 (UACC-257): > 100 µM (inactive)
GI50 (UACC-62): > 100 µM (inactive)
GI50 (UO-31): > 100 µM (inactive)
